Converted amounts (≈) assume the structure as drawn. Read-outs that look alike come from different tables or passages of the source.
Columns and labels:
Assay in all cases: In vitro MIC, 2010 surveillance isolates
K. pneumoniae ESBL+ = assay type: cell-based, Klebsiella pneumoniae
K. pneumoniae ESBL− = assay type: cell-based, Klebsiella pneumoniae
E. faecalis VNS = assay type: cell-based
E. faecium VS = assay type: cell-based
E. coli ESBL+ = assay type: cell-based, Escherichia coli
E. faecium VNS = assay type: cell-based
MR CoNS = assay type: cell-based, Coagulase-Negative Staphylococcus
E. cloacae CeftazR = assay type: cell-based
E. cloacae CeftazS = assay type: cell-based
MRSA = assay type: cell-based
MS CoNS = assay type: cell-based, Coagulase-Negative Staphylococcus
Acinetobacter spp = assay type: cell-based; conditions: for % R (resistance): CLSI breakpoints
MSSA = assay type: cell-based
E. coli ESBL− = assay type: cell-based, Escherichia coli
E. faecalis VS = assay type: cell-based
A. baumanii = assay type: cell-based
Enterobacter spp = assay type: cell-based
K. oxytoca = assay type: cell-based

`CO/N=C(\C(=O)N[C@@H]1C(=O)N2C(C(=O)O)=C(CSc3nc(=O)c(=O)[nH]n3C)CS[C@H]12)c1csc(N)n1` [Ceftriaxone] was tested, and the “% R (resistance)” value (K. pneumoniae ESBL+; Asia/Pac, Eucast breakpoints) was 93.5%, the MIC90 (K. pneumoniae ESBL+; Asia/Pac, N=124) was greater than 8 µg/mL and the “% R (resistance)” value (K. pneumoniae ESBL+; Europe, Eucast breakpoints) was 94.7%. The MIC90 (K. pneumoniae ESBL+; Europe, N=151) was greater than 8 µg/mL, the “% R (resistance)” value (K. pneumoniae ESBL+; L. Amer, CLSI breakpoints) was 99.5% and the MIC90 (K. pneumoniae ESBL+; L. Amer, N=209) was greater than 8 µg/mL. For the same molecule, the “% R (resistance)” value (K. pneumoniae ESBL+; N America, CLSI breakpoints) was 95.4%, the MIC90 (K. pneumoniae ESBL+; N America, N=108) was greater than 8 µg/mL and the “% R (resistance)” value (K. pneumoniae ESBL−; Asia/Pac, Eucast breakpoints) was 0%. For the same molecule, the MIC90 (K. pneumoniae ESBL−; Asia/Pac, N=189) was 0.12 µg/mL (≈ 0.216 µM), the “% R (resistance)” value (K. pneumoniae ESBL−; Europe, Eucast breakpoints) was 0% and the MIC90 (K. pneumoniae ESBL−; Europe, N=361) was 0.12 µg/mL (≈ 0.216 µM). The “% R (resistance)” value (K. pneumoniae ESBL−; L. Amer, CLSI breakpoints) was 0%, the MIC90 (K. pneumoniae ESBL−; L. Amer, N=160) was 0.12 µg/mL (≈ 0.216 µM) and the “% R (resistance)” value (K. pneumoniae ESBL−; N America, CLSI breakpoints) was 0%. The MIC90 (K. pneumoniae ESBL−; N America, N=671) was 0.12 µg/mL (≈ 0.216 µM), the “range of MICs (N <10, shown instead of MIC90)” value (from here on “range of MICs”) (E. faecalis VNS; Asia/Pac, N=1) was greater than 8 and the “range of MICs” value (E. faecalis VNS; Europe, N=8) was greater than 8. For the same molecule, the “range of MICs” value (E. faecalis VNS; L. Amer, N=7) was greater than 8, the MIC90 (E. faecalis VNS; N America, N=38) was greater than 8 µg/mL and the MIC90 (E. faecium VS; Asia/Pac, N=106) was greater than 8 µg/mL. For the same molecule, the MIC90 (E. faecium VS; Europe, N=303) was greater than 8 µg/mL, the MIC90 (E. faecium VS; L. Amer, N=51) was greater than 8 µg/mL and the MIC90 (E. faecium VS; N America, N=115) was greater than 8 µg/mL. The “% R (resistance)” value (E. coli ESBL+; Asia/Pac, Eucast breakpoints) was 99.5%, the MIC90 (E. coli ESBL+; Asia/Pac, N=219) was greater than 8 µg/mL and the “resistance rates for ESBL-producing clinical isolates” value (E. coli ESBL+; E. coli) was 95%. The MIC90 (E. coli ESBL+; Escherichia coli, ESBL-producing E. coli, read-out: MIC90) was greater than 8 µg/mL, the “% R (resistance)” value (E. coli ESBL+; Europe, Eucast breakpoints) was 94.2% and the MIC90 (E. coli ESBL+; Europe, N=274) was greater than 8 µg/mL. For the same molecule, the “% R (resistance)” value (E. coli ESBL+; L. Amer, CLSI breakpoints) was 97.6%, the MIC90 (E. coli ESBL+; L. Amer, N=168) was greater than 8 µg/mL and the “% R (resistance)” value (E. coli ESBL+; N America, CLSI breakpoints) was 85.8%. It also gave an MIC90 (E. coli ESBL+; N America, N=134) greater than 8 µg/mL, an MIC90 (E. faecium VNS; Asia/Pac, N=24) greater than 8 µg/mL and an MIC90 (E. faecium VNS; Europe, N=71) greater than 8 µg/mL. For the same molecule, the MIC90 (E. faecium VNS; L. Amer, N=41) was greater than 8 µg/mL, the MIC90 (E. faecium VNS; N America, N=478) was greater than 8 µg/mL and the “% R (resistance)” value (MR CoNS; Asia/Pac, Eucast breakpoints) was 100%. For the same molecule, the MIC90 (MR CoNS; Asia/Pac, N=77) was greater than 8 µg/mL, the “% R (resistance)” value (MR CoNS; Europe, Eucast breakpoints) was 100% and the MIC90 (MR CoNS; Europe, N=510) was greater than 8 µg/mL. The “% R (resistance)” value (MR CoNS; L. Amer, CLSI breakpoints) was 100%, the MIC90 (MR CoNS; L. Amer, N=301) was greater than 8 µg/mL and the “% R (resistance)” value (MR CoNS; N America, CLSI breakpoints) was 100%. The MIC90 (MR CoNS; N America, N=461) was greater than 8 µg/mL, the “% R (resistance)” value (E. cloacae CeftazR; Asia/Pac, Eucast breakpoints) was 100% and the MIC90 (E. cloacae CeftazR; Asia/Pac, N=63) was greater than 8 µg/mL. For the same molecule, the “% R (resistance)” value (E. cloacae CeftazR; Europe, Eucast breakpoints) was 100%, the MIC90 (E. cloacae CeftazR; Europe, N=72) was greater than 8 µg/mL and the “% R (resistance)” value (E. cloacae CeftazR; L. Amer, CLSI breakpoints) was 100%. For the same molecule, the MIC90 (E. cloacae CeftazR; L. Amer, N=42) was greater than 8 µg/mL, the “% R (resistance)” value (E. cloacae CeftazR; N America, CLSI breakpoints) was 100% and the MIC90 (E. cloacae CeftazR; N America, N=77) was greater than 8 µg/mL. The “% R (resistance)” value (E. cloacae CeftazS; Asia/Pac, Eucast breakpoints) was 5%, the MIC90 (E. cloacae CeftazS; Asia/Pac, N=100) was 2 µg/mL (≈ 3.61 µM) and the “% R (resistance)” value (E. cloacae CeftazS; Europe, Eucast breakpoints) was 7.7%. For the same molecule, the MIC90 (E. cloacae CeftazS; Europe, N=183) was 2 µg/mL (≈ 3.61 µM), the “% R (resistance)” value (E. cloacae CeftazS; L. Amer, CLSI breakpoints) was 24.6% and the MIC90 (E. cloacae CeftazS; L. Amer, N=57) was greater than 8 µg/mL. The “% R (resistance)” value (E. cloacae CeftazS; N America, CLSI breakpoints) was 3.3%, the MIC90 (E. cloacae CeftazS; N America, N=210) was 1 µg/mL (≈ 1.8 µM) and the “% R (resistance)” value (MRSA; Asia/Pac, Eucast breakpoints) was 100%. The MIC90 (MRSA; Asia/Pac, N=428) was greater than 8 µg/mL, the “% R (resistance)” value (MRSA; Europe, Eucast breakpoints) was 100% and the MIC90 (MRSA; Europe, N=750) was greater than 8 µg/mL. For the same molecule, the “% R (resistance)” value (MRSA; L. Amer, CLSI breakpoints) was 100%, the MIC90 (MRSA; L. Amer, N=506) was greater than 8 µg/mL and the “% R (resistance)” value (MRSA; N America, CLSI breakpoints) was 100%. The MIC90 (MRSA; N America, N=2508) was greater than 8 µg/mL, the “% R (resistance)” value (MS CoNS; Asia/Pac, Eucast breakpoints) was 0% and the MIC90 (MS CoNS; Asia/Pac, N=18) was 8 µg/mL (≈ 14.4 µM). The “% R (resistance)” value (MS CoNS; Europe, Eucast breakpoints) was 0%, the MIC90 (MS CoNS; Europe, N=185) was 4 µg/mL (≈ 7.21 µM) and the “% R (resistance)” value (MS CoNS; L. Amer, CLSI breakpoints) was 0%. The MIC90 (MS CoNS; L. Amer, N=67) was 4 µg/mL (≈ 7.21 µM), the “% R (resistance)” value (MS CoNS; N America, CLSI breakpoints) was 0% and the MIC90 (MS CoNS; N America, N=191) was 4 µg/mL (≈ 7.21 µM). For the same molecule, the MIC90 (Acinetobacter spp; Europe, N=43) was greater than 8 µg/mL, the “% R (resistance)” value (Acinetobacter spp; L. Amer) was 0% and the “% R (resistance)” value (Acinetobacter spp; N America) was 0%. The MIC90 (Acinetobacter spp; N America, N=42) was greater than 8 µg/mL, the “% R (resistance)” value (MSSA; Asia/Pac, Eucast breakpoints) was 0% and the MIC90 (MSSA; Asia/Pac, N=641) was 4 µg/mL (≈ 7.21 µM). The “% R (resistance)” value (MSSA; Europe, Eucast breakpoints) was 0%, the MIC90 (MSSA; Europe, N=2109) was 4 µg/mL (≈ 7.21 µM) and the “% R (resistance)” value (MSSA; L. Amer, CLSI breakpoints) was 0%. For the same molecule, the MIC90 (MSSA; L. Amer, N=590) was 4 µg/mL (≈ 7.21 µM), the “% R (resistance)” value (MSSA; N America, CLSI breakpoints) was 0.1% and the MIC90 (MSSA; N America, N=2373) was 4 µg/mL (≈ 7.21 µM). For the same molecule, the “% R (resistance)” value (E. coli ESBL−; Asia/Pac, Eucast breakpoints) was 0%, the MIC90 (E. coli ESBL−; Asia/Pac, N=282) was 0.12 µg/mL (≈ 0.216 µM) and the “% R (resistance)” value (E. coli ESBL−; Europe, Eucast breakpoints) was 0%. The MIC90 (E. coli ESBL−; Europe, N=1533) was 0.12 µg/mL (≈ 0.216 µM), the “% R (resistance)” value (E. coli ESBL−; L. Amer, CLSI breakpoints) was 0% and the MIC90 (E. coli ESBL−; L. Amer, N=389) was 0.12 µg/mL (≈ 0.216 µM). The “% R (resistance)” value (E. coli ESBL−; N America, CLSI breakpoints) was 0%, the MIC90 (E. coli ESBL−; N America, N=1172) was 0.12 µg/mL (≈ 0.216 µM) and the MIC90 (E. faecalis VS; Asia/Pac, N=214) was greater than 8 µg/mL. The MIC90 (E. faecalis VS; Europe, N=669) was greater than 8 µg/mL, the MIC90 (E. faecalis VS; L. Amer, N=290) was greater than 8 µg/mL and the MIC90 (E. faecalis VS; N America, N=863) was greater than 8 µg/mL. For the same molecule, the MIC90 (A. baumanii; Asia/Pac, N=275) was greater than 8 µg/mL, the MIC90 (A. baumanii; Europe, N=145) was greater than 8 µg/mL and the MIC90 (A. baumanii; L. Amer, N=275) was greater than 8 µg/mL. For the same molecule, the MIC90 (A. baumanii; N America, N=154) was greater than 8 µg/mL, the “% R (resistance)” value (Enterobacter spp; Asia/Pac, Eucast breakpoints) was 30.8% and the MIC90 (Enterobacter spp; Asia/Pac, N=52) was greater than 8 µg/mL. The “% R (resistance)” value (Enterobacter spp; Europe, Eucast breakpoints) was 39%, the MIC90 (Enterobacter spp; Europe, N=82) was greater than 8 µg/mL and the “% R (resistance)” value (Enterobacter spp; L. Amer, CLSI breakpoints) was 31%. The MIC90 (Enterobacter spp; L. Amer, N=42) was greater than 8 µg/mL, the “% R (resistance)” value (Enterobacter spp; N America, CLSI breakpoints) was 24.8% and the MIC90 (Enterobacter spp; N America, N=101) was greater than 8 µg/mL. The “% R (resistance)” value (K. oxytoca; Asia/Pac, Eucast breakpoints) was 29.4%, the MIC90 (K. oxytoca; Asia/Pac, N=17) was greater than 8 µg/mL and the “% R (resistance)” value (K. oxytoca; Europe, Eucast breakpoints) was 17.7%. The MIC90 (K. oxytoca; Europe, N=158) was greater than 8 µg/mL, the “% R (resistance)” value (K. oxytoca; L. Amer, CLSI breakpoints) was 40% and the MIC90 (K. oxytoca; L. Amer, N=25) was greater than 8 µg/mL. The “% R (resistance)” value (K. oxytoca; N America, CLSI breakpoints) was 10.2% and the MIC90 (K. oxytoca; N America, N=177) was 4 µg/mL (≈ 7.21 µM).

— patent publication US10238670B2, “9-aminomethyl minocycline compounds and methods of use thereof in urinary tract infection (UTI) treatment” (Paratek Pharmaceuticals, Inc., priority 2016, dated 2019)
